Results on eleven compounds are retold here after DBAASP.

Common to all, as to assay: ≥ marks a high value that may be exact or a test limit, other limits are often not marked, values filed in µg/mL are converted to µM
One assay deals with Streptococcus mutans.
The test system of assay [1] is Pseudomonas aeruginosa CMCCB 10104.
Assay [2] relates to Escherichia coli ATCC 25922.
The test system of assay [3] is Escherichia coli DH5alpha.
Assay [4] concerns Pseudomonas aeruginosa ATCC 27853.
For assay [5], the system named is Candida albicans ATCC 2002.
Assay [6] concerns Staphylococcus aureus ATCC 25923.

≈ marks a conversion by molar mass, not a printed value.

The term MIC denotes the lowest concentration that inhibits growth of the organism. Compound `C[C@H](N)C(=O)N[C@@H](CCC(N)=O)C(=O)N[C@@H](C)C(=O)N[C@@H](C)C(=O)N[C@@H](Cc1cnc[nH]1)C(=O)N[C@@H](CCC(N)=O)C(=O)N[C@@H](C)C(=O)N[C@@H](C)C(=O)N[C@@H](Cc1cnc[nH]1)C(=O)N[C@@H](C)C(=O)N[C@@H](C)C(=O)N[C@@H](Cc1cnc[nH]1)C(=O)N[C@@H](CCC(N)=O)C(=O)N[C@@H](Cc1ccccc1)C(N)=O` [AQAAHQAAHAAHQF] yielded an MIC in the assay with Streptococcus mutans of at least 85.7 µM.
Take `CC[C@H](C)[C@H](NC(=O)[C@H](Cc1cnc[nH]1)NC(=O)[C@H](C)NC(=O)[C@H](CCSC)NC(=O)[C@H](CC(N)=O)NC(=O)[C@H](CCCCN)NC(=O)[C@H](CCCCN)NC(=O)[C@@H](NC(=O)[C@@H](NC(=O)[C@H](CCCCN)NC(=O)[C@H](C)NC(=O)[C@H](Cc1ccccc1)NC(=O)[C@H](CC(C)C)NC(=O)[C@H](CCCCN)NC(=O)[C@@H]1CCCN1C(=O)[C@H](CC(C)C)NC(=O)[C@@H](N)Cc1ccccc1)[C@@H](C)CC)[C@@H](C)O)C(=O)N[C@@H](CCCN=C(N)N)C(=O)O` [FLPKLFAKITKKNMAHIR]: the MIC is 1.48 µM (≈ 3.2 µg/mL) in assay [1]; 1.48 µM (≈ 3.2 µg/mL) in assay [2]; at least 50 µM in assay [3]; 50 µM (≈ 108 µg/mL) in assay [4]; 0.742 µM (≈ 1.6 µg/mL) in assay [5]; 0.742 µM (≈ 1.6 µg/mL) in assay [6].
Consider `CC[C@H](C)[C@H](NC(=O)CN)C(=O)N[C@@H](CC(C)C)C(=O)NCC(=O)N[C@@H](CC(N)=O)C(=O)N[C@H](C(=O)N[C@H](C(=O)NCC(=O)N[C@@H](CCSC)C(=O)NCC(=O)N[C@@H](CCCCN)C(=O)N[C@@H](CCC(N)=O)C(=O)N[C@H](C(=O)N[C@H](C(=O)N[C@H]1CSSC[C@@H](C(=O)O)NC(=O)[C@H](CC(C)C)NC(=O)CNC(=O)[C@H](CO)NC(=O)[C@H](CC(C)C)NC(=O)CNC1=O)C(C)C)C(C)C)C(C)C)[C@@H](C)CC` [GILGNIVGMGKQVVCGLSGLC], for which the MIC came to 5.05 µM (≈ 10.2 µg/mL) in assay [1], 2.53 µM (≈ 5.1 µg/mL) in assay [2], 2.53 µM (≈ 5.1 µg/mL) in assay [5] and 2.53 µM (≈ 5.1 µg/mL) in assay [6].
As for `CC[C@H](C)[C@H](NC(=O)CNC(=O)[C@H](CO)NC(=O)[C@H](CC(C)C)NC(=O)[C@@H](NC(=O)CN)[C@@H](C)CC)C(=O)N[C@@H](CC(C)C)C(=O)NCC(=O)N[C@H](C(=O)NCC(=O)N[C@@H](CCCCN)C(=O)N[C@@H](CCCCN)C(=O)N[C@@H](CC(C)C)C(=O)N[C@H](C(=O)N[C@H]1CSSC[C@@H](C(=O)O)NC(=O)[C@H](CC(C)C)NC(=O)CNC(=O)[C@H](CO)NC(=O)[C@H](CC(C)C)NC(=O)CNC1=O)C(C)C)C(C)C` [GILSGILGVGKKLVCGLSGLC], the minimal inhibitory concentration (MIC) was determined as 11.6 µM (≈ 23 µg/mL) in assay [1], 5.79 µM (≈ 11.5 µg/mL) in assay [2], 5.79 µM (≈ 11.5 µg/mL) in assay [5] and 2.92 µM (≈ 5.79 µg/mL) in assay [6].
For `CC[C@H](C)[C@H](NC(=O)CNC(=O)[C@H](CCCCN)NC(=O)CNC(=O)[C@H](C)NC(=O)[C@H](Cc1ccccc1)NC(=O)[C@H](CCCCN)NC(=O)[C@H](CO)NC(=O)[C@H](Cc1ccccc1)NC(=O)[C@H](CC(C)C)NC(=O)CN)C(=O)N[C@@H](CCCCN)C(=O)N[C@@H](CC(N)=O)C(=O)N[C@@H](Cc1ccccc1)C(=O)N[C@@H](CC(C)C)C(=O)N[C@H](C(=O)N[C@@H](CCCCN)C(=O)NCC(=O)N[C@H](C(=O)N[C@@H](CCCCN)C(=O)N[C@@H](Cc1cnc[nH]1)C(=O)N[C@H](C(=O)NCC(=O)N[C@@H](CCCCN)C(=O)N[C@@H](CCC(=O)O)C(=O)N[C@H](C(=O)NCC(=O)N[C@@H](CCSC)C(=O)N[C@@H](CC(=O)O)C(=O)N[C@H](C(=O)N[C@H](C(=O)N[C@@H](CCCN=C(N)N)C(=O)N[C@H](C(=O)NCC(=O)N[C@H](C(=O)N[C@@H](CC(=O)O)C(=O)N[C@H](C(=O)N[C@@H](C)C(=O)NCC(=O)N[C@H]1CSSC[C@@H](C(=O)O)NC(=O)[C@H](CCC(=O)O)NC(=O)CNC(=O)[C@H](CCCCN)NC(=O)[C@H]([C@@H](C)CC)NC(=O)[C@H](CCCCN)NC1=O)C(C)C)[C@@H](C)CC)[C@@H](C)O)[C@@H](C)CC)C(C)C)C(C)C)[C@@H](C)CC)C(C)C)[C@@H](C)CC` [GLFSKFAGKGIKNFLIKGVKHIGKEVGMDVIRTGIDVAGCKIKGEC], the MIC in assay [1] was 0.699 µM (≈ 3.4 µg/mL); in assay [2], 0.699 µM (≈ 3.4 µg/mL); in assay [5], 0.349 µM (≈ 1.7 µg/mL); in assay [6], 0.349 µM (≈ 1.7 µg/mL).
On to `CC[C@H](C)[C@H](NC(=O)[C@@H](NC(=O)[C@H](CC(=O)O)NC(=O)[C@H](CC(C)C)NC(=O)[C@H](CC(C)C)NC(=O)CN)[C@@H](C)O)C(=O)N[C@@H](CCCCN)C(=O)N[C@@H](CC(N)=O)C(=O)N[C@@H](CCSC)C(=O)N[C@@H](C)C(=O)N[C@@H](CC(C)C)C(=O)N[C@@H](CC(N)=O)C(=O)N[C@@H](C)C(=O)N[C@@H](C)C(=O)N[C@@H](CCCCN)C(=O)N[C@@H](CO)C(=O)N[C@@H](C)C(=O)NCC(=O)N[C@H](C(=O)N[C@@H](CO)C(=O)N[C@H](C(=O)N[C@@H](CC(C)C)C(=O)N[C@@H](CC(N)=O)C(=O)N[C@@H](CO)C(=O)N[C@@H](CC(C)C)C(=O)N[C@@H](CO)C(=O)N[C@H]1CSSC[C@@H](C(=O)O)NC(=O)[C@H]([C@@H](C)O)NC(=O)[C@H](CCCCN)NC(=O)[C@H](CO)NC(=O)[C@H](CC(=O)O)NC(=O)[C@H](CCCCN)NC1=O)C(C)C)C(C)C` [GLLDTIKNMALNAAKSAGVSVLNSLSCKDSKTC], for which the MIC was found to be 3.46 µM (≈ 11.6 µg/mL) in assay [1], 1.73 µM (≈ 5.8 µg/mL) in assay [2], 3.46 µM (≈ 11.6 µg/mL) in assay [5] and 1.73 µM (≈ 5.8 µg/mL) in assay [6].
Regarding `CC[C@H](C)[C@H](NC(=O)[C@H](CC(C)C)NC(=O)[C@H](CCC(N)=O)NC(=O)[C@@H](NC(=O)[C@H](C)NC(=O)CNC(=O)[C@H](CCCCN)NC(=O)[C@@H](NC(=O)[C@H](CC(C)C)NC(=O)[C@@H](NC(=O)[C@H](Cc1ccccc1)NC(=O)[C@@H](NC(=O)CN)C(C)C)[C@@H](C)O)[C@@H](C)CC)[C@@H](C)O)C(=O)NCC(=O)N[C@@H](CCCCN)C(=O)N[C@H](C(=O)N[C@@H](CC(C)C)C(=O)NCC(=O)N[C@@H](CCCCN)C(=O)N[C@@H](CCC(=O)O)C(=O)N[C@@H](CC(C)C)C(=O)NCC(=O)N[C@@H](CCCCN)C(=O)N[C@H](C(=O)NCC(=O)N[C@@H](CC(C)C)C(=O)N[C@@H](CCC(=O)O)C(=O)N[C@@H](CC(C)C)C(=O)N[C@@H](CCSC)C(=O)N[C@@H](C)C(=O)N[C@H]1CSSC[C@@H](C(=O)O)NC(=O)[C@H](CCC(N)=O)NC(=O)[C@H](CC(N)=O)NC(=O)[C@H]([C@@H](C)O)NC(=O)[C@H]([C@@H](C)CC)NC(=O)[C@H](CCCCN)NC1=O)[C@@H](C)O)[C@@H](C)O` [GVFTLIKGATQLIGKTLGKELGKTGLELMACKITNQC], the MIC in assay [1] amounted to 5.57 µM (≈ 21.6 µg/mL); in assay [2], 2.78 µM (≈ 10.8 µg/mL); in assay [5] it was 2.78 µM (≈ 10.8 µg/mL); in assay [6], 5.57 µM (≈ 21.6 µg/mL).
For the compound `CSCC[C@H](NC(=O)[C@H](CCC(=O)O)NC(=O)[C@H](C)NC(=O)[C@H](C)NC(=O)[C@@H](NC(=O)CNC(=O)[C@H](C)NC(=O)[C@@H](NC(=O)[C@H](Cc1ccccc1)NC(=O)[C@H](C)NC(=O)[C@@H](N)CC(C)C)C(C)C)C(C)C)C(=O)N[C@@H](CCSC)C(=O)N[C@@H](CCC(N)=O)C(=O)N[C@@H](Cc1cnc[nH]1)C(=O)N[C@H](C(=O)N[C@@H](Cc1ccc(O)cc1)C(=O)N[C@H]1CSSC[C@@H](C(=O)O)NC(=O)[C@H](CCCCN)NC(=O)[C@H](CCCCN)NC(=O)[C@H](CO)NC(=O)[C@H](C)NC(=O)[C@H](C)NC1=O)C(C)C` [LAFVAGVAAEMMQHVYCAASKKC], the MIC in assay [1] stood at 5.11 µM (≈ 12.4 µg/mL); in assay [2], 2.55 µM (≈ 6.2 µg/mL); in assay [5], 5.11 µM (≈ 12.4 µg/mL); in assay [6], 5.11 µM (≈ 12.4 µg/mL).
As for `CC(C)C[C@H](NC(=O)[C@H](Cc1cnc[nH]1)NC(=O)[C@H](CCCCN)NC(=O)[C@H](Cc1ccccc1)NC(=O)[C@H](CCCN=C(N)N)NC(=O)[C@H](CCCCN)NC(=O)[C@H](CC(C)C)NC(=O)[C@H](CC(C)C)NC(=O)[C@@H](N)CCCN=C(N)N)C(=O)N[C@@H](Cc1ccccc1)C(=O)N[C@@H](CCCCN)C(=O)O` [RLLKRFKHLFK], the MIC against Streptococcus mutans was at least 42.1 µM.
The compound `NC(=O)[C@H](Cc1ccccc1)NC(=O)[C@H](Cc1c[nH]c2ccccc12)NC(=O)[C@H](Cc1c[nH]c2ccccc12)NC(=O)[C@H](Cc1c[nH]c2ccccc12)NC(=O)[C@H](CCCN=C(N)N)NC(=O)[C@H](CCCN=C(N)N)NC(=O)[C@H](CCCN=C(N)N)NC(=O)[C@@H]1CCCN1C(=O)[C@H](CO)NC(=O)CNC(=O)[C@H](CO)NC(=O)[C@@H]1CCCN1C(=O)[C@H](Cc1ccccc1)NC(=O)[C@H](Cc1c[nH]c2ccccc12)NC(=O)[C@H](Cc1c[nH]c2ccccc12)NC(=O)[C@H](Cc1c[nH]c2ccccc12)NC(=O)[C@H](CCCN=C(N)N)NC(=O)[C@H](CCCN=C(N)N)NC(=O)[C@@H](N)CCCN=C(N)N` [RRRWWWFPSGSPRRRWWWF] gave an MIC against Streptococcus mutans of 11.5 µM (≈ 32 µg/mL).
As to `CC[C@H](C)[C@H](NC(=O)[C@H](C)NC(=O)[C@H](CC(C)C)NC(=O)[C@H](CC(N)=O)NC(=O)[C@H](CCCCN)NC(=O)[C@H](CC(C)C)NC(=O)[C@@H](NC(=O)[C@H](CC(=O)O)NC(=O)[C@H](CC(C)C)NC(=O)[C@H](Cc1ccccc1)NC(=O)[C@@H](N)CO)[C@@H](C)O)C(=O)N[C@@H](CO)C(=O)N[C@@H](C)C(=O)N[C@@H](C)C(=O)N[C@@H](CCCCN)C(=O)NCC(=O)N[C@@H](C)C(=O)NCC(=O)N[C@@H](CCC(N)=O)C(=O)N[C@@H](CO)C(=O)N[C@H](C(=O)N[C@@H](CC(C)C)C(=O)N[C@@H](CO)C(=O)N[C@H](C(=O)N[C@@H](CC(C)C)C(=O)N[C@@H](CO)C(=O)N[C@H]1CSSC[C@@H](C(=O)O)NC(=O)[C@H]([C@@H](C)O)NC(=O)[C@H](CCC(=O)O)NC(=O)[C@H](CO)NC(=O)[C@H](CC(C)C)NC(=O)[C@H](CCCCN)NC1=O)[C@@H](C)O)C(C)C` [SFLDTLKNLAISAAKGAGQSVLSTLSCKLSETC], the MIC in assay [1] is 1.97 µM (≈ 6.6 µg/mL); in assay [2] it was 3.93 µM (≈ 13.2 µg/mL); in assay [5] it was 1.97 µM (≈ 6.6 µg/mL); in assay [6], 1.97 µM (≈ 6.6 µg/mL).
